Counter-ions that a name gives are not always drawn. Like-named read-outs stand apart in the source and are kept apart here.
Assays:
[1] = target: T1, NR1-1a/NR2B NMDA receptor (Rattus norvegicus, UniProt P35439+Q00960); assay: Patch-clamp inhibition of glutamate-evoked currents at recombinant NMDA receptors in transfected HEK293 cells; type: cell-based
T1 construct: expressed in transfected cells; host or cells: HEK293 cells (ATCC CRL1573)
Procedure: Transfected cells were identified by means of fluorescent green protein (GFP) fluorescence. Its genus was transfected together with the both receptor subunit genes.
Steroid-containing solutions were prepared from fresh solution (20 mmol·l^−1, of steroid dissolved in dimethyl sulfoxide, DMSO), which was added to the extracellular solution containing 1 mmol·l^−1 glutamic acid and 10 μmol·l^−1 of glycine. Identical concentrations of DMSO were added to all other extracellular solutions.
Current responses produced by extracellular application of glutamic acid solution (1 mmol·l^−1) were measured from the whole cell by patch-clamp technique, which is used for the study of transport of charged particles through model and also natural biological membranes. The currents were measured at membrane potential maintained at −60 mV and +60 mV.
Same amounts (0.3 μg) of cDNA coding NR1, NR2 and GFP (green fluorescent protein) (pQBI 25, Takara, Japan) were mixed with 0.9 μl of Matra-A Reagent (IBA, Göttingen, Germany) and added to confluent HEK293 cells cultivated in v 24-pit cultivating plate. After trypsination, the cells were re-suspended in Opti-MEM® I containing 1% fetal bovine serum. Subsequently, 20 mmol·l^−1 MgCl2, 1 mmol l^−1 D,L-2-amino-5-phosphonopentanoic acid, 3 mmol·l^−1 kynurenic acid was added to the mixture and cells were inoculated on the polylysine-coated glass plates having 25 mm in diameter. The following genes coding NMDA receptor subunits were used for transfection: NR1-1 a (GenBank accession No. U08261) and NR2B (GenBank accession No. M91562).
HEK293 Cultured cells were used for electrophysiological investigations with a latency of 16-40 h after transfection. Whole-cell currents were measured by patch-clamp amplifier (Axopatch 1D; Axon Instruments, Inc. Foster City, USA) after capacitance and serial resistance (<10 MΩ) compensation to 80-90%. Agonist-induced responses were filtered to 1 kHz (8-pole Bessel filter; Frequency Devices, Haverhill, USA), digitized with sampling frequency of 5 kHz and analyzed by pClamp version 9 software (Axon Instruments, USA). […] Extracellular solution (ECS) contained 160 mmol·l^−1 sodium chloride, 2.5 mmol·l^−1 potassium chloride, 10 mmol·l^−1 HEPES, 10 mmol·l^−1 glucose, 0.2 mmol·l^−1 EDTA a 0.7 mmol·l^−1 calcium chloride (pH adjusted to 7.3 by sodium hydroxide solution). Glycine was added to both testing and control solution. Moreover, bicuculline (10 μmol·l^−1) and tetrodotoxin (0.5 μmol·l^−1) was added to hippocampal cultures. Steroid-containing solutions were prepared from fresh solution (20 mmol·l^−1) of steroid dissolved in dimethyl sulfoxide (DMSO). Same concentrations of DMSO were used in all extracellular solutions. Control and experimental solutions were applied via microprocessor-controlled perfusion system with approx. rate of solution exchange in areas adjacent to cells reaching ˜10 ms.
Current responses produced by 100 μmol·l^−1 of NMDA (in the case of hipocampal neurones), or by 1 mmol·l^−1 of glutamate (on recombinant NMDA receptors) were measured at membrane potential maintained at −60 mV. […] Relative effect of steroid-induced inhibition was used for calculating IC50.

[2] = calculated from relative steroid-induced inhibition, Hill's coefficient 1.2, read-out: IC50
[3] = HEK293, read-out: Mean % change ± SD

T1 sequence (Q00960 27-1482, other chains not shown): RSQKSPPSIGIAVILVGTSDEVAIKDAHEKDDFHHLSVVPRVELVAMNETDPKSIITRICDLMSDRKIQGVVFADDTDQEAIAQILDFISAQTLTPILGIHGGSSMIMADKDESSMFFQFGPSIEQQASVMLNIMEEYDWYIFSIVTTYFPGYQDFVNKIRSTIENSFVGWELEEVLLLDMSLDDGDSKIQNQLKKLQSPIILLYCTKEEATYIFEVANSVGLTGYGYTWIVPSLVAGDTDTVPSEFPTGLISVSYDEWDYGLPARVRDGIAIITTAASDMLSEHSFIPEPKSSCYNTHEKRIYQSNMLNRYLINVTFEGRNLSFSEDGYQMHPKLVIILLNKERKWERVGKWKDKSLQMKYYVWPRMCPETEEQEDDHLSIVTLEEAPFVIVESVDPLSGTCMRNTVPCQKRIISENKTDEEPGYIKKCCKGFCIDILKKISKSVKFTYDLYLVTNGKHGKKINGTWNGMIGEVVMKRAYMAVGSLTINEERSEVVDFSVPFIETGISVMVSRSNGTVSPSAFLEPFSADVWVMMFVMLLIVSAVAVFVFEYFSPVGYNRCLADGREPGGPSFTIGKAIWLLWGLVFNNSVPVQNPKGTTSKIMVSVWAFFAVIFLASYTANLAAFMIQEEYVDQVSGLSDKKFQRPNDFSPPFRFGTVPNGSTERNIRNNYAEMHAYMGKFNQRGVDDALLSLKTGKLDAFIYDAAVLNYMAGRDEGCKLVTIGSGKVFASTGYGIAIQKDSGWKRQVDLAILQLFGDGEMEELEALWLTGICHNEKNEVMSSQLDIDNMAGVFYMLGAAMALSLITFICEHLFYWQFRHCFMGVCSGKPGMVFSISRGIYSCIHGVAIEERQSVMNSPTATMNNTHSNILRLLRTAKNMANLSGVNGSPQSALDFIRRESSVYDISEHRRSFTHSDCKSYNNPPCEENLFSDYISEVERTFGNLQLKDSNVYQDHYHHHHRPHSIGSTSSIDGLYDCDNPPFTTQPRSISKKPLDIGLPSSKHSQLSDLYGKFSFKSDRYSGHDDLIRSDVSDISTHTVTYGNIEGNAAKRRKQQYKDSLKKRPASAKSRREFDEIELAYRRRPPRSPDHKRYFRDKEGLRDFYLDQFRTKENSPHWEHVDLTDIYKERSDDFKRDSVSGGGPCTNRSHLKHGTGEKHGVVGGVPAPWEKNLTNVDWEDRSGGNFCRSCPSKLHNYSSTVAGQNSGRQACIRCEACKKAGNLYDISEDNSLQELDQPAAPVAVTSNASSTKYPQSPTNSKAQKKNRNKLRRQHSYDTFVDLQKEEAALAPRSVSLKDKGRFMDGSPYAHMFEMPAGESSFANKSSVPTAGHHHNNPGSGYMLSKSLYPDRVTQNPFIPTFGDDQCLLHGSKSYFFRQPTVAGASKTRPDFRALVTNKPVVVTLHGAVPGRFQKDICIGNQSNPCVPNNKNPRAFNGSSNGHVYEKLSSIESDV

Row | Structure (SMILES) | melting point | IC50 [1, 2] | also measured
1 | C[C@]12CC[C@@H](OS(=O)(=O)O)C[C@H]1CC[C@@H]1[C@@H]2CC[C@]2(C)[C@@H](I)CC[C@@H]12 (as salt: salt) [Compound 93, Pyridinium (3R,5R,8R,9S,10S,13S,14S,17S)-17-iodo-10,13-dimethylhexadecahydro-1H-cyclopenta[a]phenanthren-3-yl 3-sulfate] | 118 to 120 °C |  | 
2 | C[C@]12CC[C@@H](OS(=O)(=O)O)C[C@H]1CC[C@@H]1[C@@H]2CC[C@@]2(C)[C@H]1CCC2(F)F (as salt: salt) [Compound 95, Pyridinium (3R,5R,8R,9S,10S,13S,14S)-17,17-difluoro-10,13-dimethylhexadecahydro-1H-cyclopenta[a]phenanthren-3-yl 3-sulfate] | 185 to 187 °C |  | 
3 | CC12CCCCC1C1CCC3CC(OS(=O)(=O)O)CCC3(C)C1CC2 (as salt: salt) [Compound 101, Pyridinium (2R,4aS,4bS,6aS,10bS,6aS,12aR)-4a,6a-dimethyloctadecahydrochrysen-2-yl 2-sulfate] | 173 to 174 °C |  | 
4 | C=C1C[C@H]2[C@@H]3CC[C@@H]4C[C@H](OS(=O)(=O)O)CC[C@]4(C)[C@H]3CC[C@]2(C)C1 (as salt: salt) [Compound 114, Pyridinium (3R,5R,8S,9S,10S,13R,14S)-10,13-dimethyl-16-methylenhexadekhydro-1H-cyclopenta[a]phenanthren-3-yl 3-sulfate] | 180 to 182 °C |  | 
5 | COC(=O)[C@@]1(C)CC[C@H]2[C@@H](CC[C@@H]3C[C@H](OS(=O)(=O)O)CC[C@@]32C)C1 (as salt: sulfate) [Compound 40, Methyl (2S,4aS,4bS,7R,8aR,10aS)-2,4b-dimethyl-7-(sulfooxy)tetradecahydrophenanthren-2-carboxylate] | 115 to 118 °C |  | 
6 | C[C@]12CC[C@@H](OC(=O)CCC(=O)O)C[C@H]1CC[C@H]1CCCC[C@@H]12 [Compound 9, 4-(((2R,4aS,4bS,8aR,10aR)-4a-Methyltetradecahydrophenanthren-2-yl)oxy)-4-oxobutanoic Acid] | 131 to 133 °C |  | 
7 | C[C@@H]1CC[C@H]2[C@@H](CC[C@@H]3C[C@H](OC(=O)CCC(=O)O)CC[C@@]32C)C1 [Compound 34, 4-(((2R,4aS,4bS,7R,8aS,10aR)-4a,7-Dimethyltetradecahydrophenanthren-2-yl)oxy)-4-oxobutanoic acid] | 119 to 121 °C | 23.2 µM | inhibition at 10 µM ([1]; HEK293, steroid concentration 10 μmol·l^−1, 1 mmol·l^−1 glutamate, −60 mV, read-out: Mean % change ± SD): 27 ± 10%
8 | COC[C@@]1(C)CC[C@H]2[C@@H](CC[C@@H]3C[C@H](OC(=O)CCC(=O)O)CC[C@@]32C)C1 [Compound 45, 4-(((2R,4aS,4bS,7S,8aS,10aR)-7-(Methoxymethyl)-4a,7-dimethyltetradecahydrophenanthren-2-yl)oxy)-4-oxobutanoic acid] | 107 to 109 °C |  | 
9 | C[C@@]12CCC[C@H]1[C@@H]1CC[C@@H]3C[C@H](NC(=O)C(=O)O)CC[C@]3(C)[C@H]1CC2 [Compound 59, 2-(((3R,5R,8S,9S,10S,13S,14S)-10,13-Dimethylhexadecahydro-1H-cyclopenta[a]phenanthren-3-yl)amino)-2-oxoacetic acid] | 191 to 193 °C | 23.2 µM | inhibition at 10 µM [1, 3]: 32 ± 5%
10 | C[C@@]12CCC[C@H]1[C@@H]1CC[C@@H]3C[C@H](NC(=O)CC(=O)O)CC[C@]3(C)[C@H]1CC2 [Compound 61] | 126 to 128 °C |  | IC50 [1]: 15.4 µM; inhibition at 10 µM [1, 3]: 40 ± 5.7%
11 | C[C@]12CC[C@@H](CC(=O)O)C[C@H]1CC[C@@H]1[C@@H]2CC[C@]2(C)C(=O)CC[C@@H]12 [Compound 74, 2-((3R,5R,8R,9S,10S,13S,14S)-10,13-Dimethyl-17-oxohexadecahydro-1H-cyclopenta[a]phenanthren-3-yl)acetic acid] | 130 to 133 °C | 38.7 µM | inhibition at 50 µM [1, 3]: 58.6 ± 9.3%
12 | C=C(C)[C@H]1CC[C@H]2[C@@H]3CC[C@@H]4C[C@H](OC(=O)CC(=O)O)CC[C@]4(C)[C@H]3CC[C@]12C [Compound 88, 3-(((3R,5R,8R,9S,10S,13S,14S,17R)-10,13-Dimethyl-17-(prop-1-en-2-yl)hexadecahydro-4H-cyclopenta[a]phenanthren-3-yl)oxy)-3-oxopropanoic acid] | 147.7 to 148.3 °C | 11.8 µM | inhibition at 10 µM [1, 3]: 46 ± 0.9%
13 | C[C@@]12CCCCC1[C@@H]1CC[C@@H]3C[C@H](OC(=O)CC(=O)O)CC[C@]3(C)[C@H]1CC2 (stereo partly drawn) [Compound 102, 3-(((2R,4aS,4bS,6aS,10bS,12aR)-4a,6a-Dimethyloctadecahydrochrysen-2-yl)oxy)-3-oxopropanoic acid] | 145.3 to 147.2 °C |  | 
14 | C[C@@]12CCCCC1[C@@H]1CC[C@@H]3C[C@H](OC(=O)CCC(=O)O)CC[C@]3(C)[C@H]1CC2 (stereo partly drawn) [Compound 103, 4-(((2R,4aS,4bS,6aS,10bS,12aR)-4a,6a-Dimethyloctadecahydrochrysen-2-yl)oxy)-4-oxobutanoic acid] | 136 to 138 °C |  | 
15 | C[C@H]1CC[C@H]2[C@@H]3CC[C@@H]4C[C@H](NC(=O)C(=O)[O-])CC[C@]4(C)[C@H]3CC[C@]12C.[Na+] [Compound 138, Sodium 2-oxo-2-(((3R,5R,8S,9S,10S,13R,14S,17S)-10,13,17-trimethylhexadecahydro-1H-cyclopenta[a]phenanthren-3-yl)amino)acetate] | 330 to 334.6 °C | 3.7 µM | inhibition at 1 µM [1, 3]: 17.5 ± 1.8%
16 | C[C@H]1CC[C@H]2[C@@H]3CC[C@@H]4C[C@H](NC(=O)CC(=O)O)CC[C@]4(C)[C@H]3CC[C@]12C [Compound 140, 3-Oxo-3-(((3R,5R,8S,9S,10S,13R,14S,17S)-10,13,17-trimethylhexadecahydro-1H-cyclopenta[a]phenanthren-3-yl)amino)propanoic acid] | 147.8 to 149.4 °C | 3.9 µM | inhibition at 1 µM [1, 3]: 17.8 ± 6.5%
17 | CC[C@@H](C)C1CC[C@H]2[C@@H]3CC[C@@H]4C[C@H](NC(=O)C(=O)[O-])CC[C@]4(C)[C@H]3CC[C@]12C.[Na+] (stereo partly drawn) [Compound 148, Sodium 2-(((3R,5R,8R,9S,10S,13R,14S)-17-((R)-sec-butyl)-10,13-dimethylhexadecahydro-1H-cyclopenta[a]phenanthren-3-yl)amino)-2-oxoacetate] | 182 to 184 °C (dec.) | 9.4 µM | inhibition at 1 µM [1, 3]: 7.3 ± 3%
18 | CC[C@@H](C)C1CC[C@H]2[C@@H]3CC[C@@H]4C[C@H](NC(=O)CC(=O)O)CC[C@]4(C)[C@H]3CC[C@]12C (stereo partly drawn) [Compound 149, 3-(((3R,5R,8R,9S,10S,13R,14S)-17-((R)-Sec-butyl)-10,13-dimethylhexadecahydro-1H-cyclopenta[a]phenanthren-3-yl)amino)-3-oxopropanoic acid] | 163 to 165 °C | 18.3 µM | inhibition at 10 µM [1, 3]: 33.6 ± 6.1%
